Data set [1] addresses T1, high-conductance calcium-activated potassium (maxi-K) channels (Homo sapiens, UniProt Q12791).
T1 construct: expressed in transfected cells; host or cells: CHO cells (α-subunit alone) and HEK293 cells (α- and β-subunits)
The data set can be described thus: Patch clamp recordings of maxi-K channel currents in excised inside-out membrane patches. It is filed as biochemical. The conditions noted are these: from reduction in peak current, 10 nM compound on internal side of membrane patch, held at -80 mV, steps typically to +50 mV. An excerpt:
Patch clamp recordings of currents flowing through high-conductance calcium-activated potassium (maxi-K) channels were made from membrane patches excised from CHO cells constitutively expressing the α-subunit of the maxi-K channel and from HEK293 cells constitutively expressing both α- and β-subunits using conventional techniques (Hamill et al., 1981, Pflügers Archiv. 391, 85-100) at room temperature. Glass capillary tubing (Garner #7052) was pulled in two stages to yield micropipettes with tip diameters of approximately 1-2 microns. Pipettes were typically filled with solutions containing (mM): 150 KCl, 10 Hepes (4-(2-hydroxyethyl)-1-piperazine […]), 1 MgCl2, 0.01 CaCl2, and adjusted to pH 7.20 with 3.7 mM KOH. After forming a high resistance ([…]) seal between the plasma membrane and the pipette, the pipette was withdrawn from the cell, forming an excised inside-out membrane patch. The patch was excised into a bath solution containing (mM): 150 KCl, 10 Hepes, 5 EGTA (ethylene glycol bis(β-aminoethyl ether)-N,N,N′,N′-tetraacetic acid), sufficient Ca to yield a free Ca concentration of 1-5 μM, and the pH was adjusted to 7.2 with KOH. For example, 4.193 mM Ca was added to give a free concentration of 1 μM at 22° C. An EPC9 amplifier (HEKA Elektronic, Lambrect, Germany) was used to control the voltage and to measure the currents flowing across the membrane patch. The input to the headstage was connected to the pipette solution with a Ag/AgCl wire, and the amplifier ground was connected to the bath solution with a Ag/AgCl wire covered with a tube filled with agar dissolved in 0.2 M KCl. […]
The effects of the compounds of the present invention on maxi-K channels was examined in excised inside-out membrane patches. […] The fraction of channels blocked in each experiment was calculated from the reduction in peak current caused by application of 10 nM of specified compound to the internal side of the membrane patch. […]

In data set [2] the test system is Mice (CD-1). The experiment in a line: Tremorgen assay, mouse model. It is filed as in vivo. To be noted: CD-1 mice; for Tremors: intraperitoneal. The protocol:
Tremorgen Assay A mouse model was developed to evaluate the tremorgen potential of the instance compounds. Mice (CD-1) were injected intraperitoneally at 5 mg/Kg with each compound and observed by investigators for 1 hour for any signs of tremors as well as other behaviors not seen in control mice.
A known tremorgen, Aflatrem, consistently produces tremors in injected mice within 15 minutes at 1 and 5 mg/Kg.

Where only a bound is given, the exact number is not on record here.

T1 sequence (Q12791 whole entry): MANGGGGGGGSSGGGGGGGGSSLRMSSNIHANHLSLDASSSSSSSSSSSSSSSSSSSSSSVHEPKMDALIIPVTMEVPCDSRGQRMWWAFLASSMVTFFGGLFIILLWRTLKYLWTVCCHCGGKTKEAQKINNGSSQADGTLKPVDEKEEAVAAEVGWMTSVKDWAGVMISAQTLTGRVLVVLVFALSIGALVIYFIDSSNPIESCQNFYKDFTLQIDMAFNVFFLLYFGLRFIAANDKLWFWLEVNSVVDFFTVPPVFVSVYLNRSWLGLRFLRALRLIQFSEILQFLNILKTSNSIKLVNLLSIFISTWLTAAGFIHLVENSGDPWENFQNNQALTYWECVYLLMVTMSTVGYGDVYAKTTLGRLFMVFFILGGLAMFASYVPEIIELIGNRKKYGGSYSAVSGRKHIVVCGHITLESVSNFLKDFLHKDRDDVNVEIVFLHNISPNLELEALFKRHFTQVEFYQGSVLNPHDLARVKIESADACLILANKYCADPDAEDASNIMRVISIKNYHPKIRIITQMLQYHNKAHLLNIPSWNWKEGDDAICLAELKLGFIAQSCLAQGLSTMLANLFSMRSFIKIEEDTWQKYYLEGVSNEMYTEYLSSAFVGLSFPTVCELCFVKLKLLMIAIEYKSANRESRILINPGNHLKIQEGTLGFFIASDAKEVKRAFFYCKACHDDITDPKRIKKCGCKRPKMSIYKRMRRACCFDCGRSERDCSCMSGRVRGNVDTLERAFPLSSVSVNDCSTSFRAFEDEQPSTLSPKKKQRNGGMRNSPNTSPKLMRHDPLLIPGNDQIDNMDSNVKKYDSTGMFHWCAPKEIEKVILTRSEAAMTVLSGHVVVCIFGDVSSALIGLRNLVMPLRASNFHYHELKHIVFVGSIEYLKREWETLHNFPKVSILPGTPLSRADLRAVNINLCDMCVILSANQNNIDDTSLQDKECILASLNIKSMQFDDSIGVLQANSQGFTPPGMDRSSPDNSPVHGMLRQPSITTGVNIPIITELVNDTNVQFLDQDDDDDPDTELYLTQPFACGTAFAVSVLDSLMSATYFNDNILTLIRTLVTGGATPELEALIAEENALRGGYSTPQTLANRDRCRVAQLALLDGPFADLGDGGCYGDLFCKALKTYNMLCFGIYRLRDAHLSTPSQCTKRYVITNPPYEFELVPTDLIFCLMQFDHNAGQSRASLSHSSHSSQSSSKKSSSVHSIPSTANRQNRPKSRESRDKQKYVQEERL

Regarding `CC(C)=CCc1cccc2[nH]c3c(c12)C[C@@H]1CC[C@@]2(O)C45OC4C4OC(C6OC6(C)C)OC(C)(C)C4OC5=CC[C@]2(C)[C@@]31C` (some centres unmarked) [Compound III], in data set [1], the “FRACTION BLOCKED (10 nM)” value is 0.99-1. The Tremors result in data set [2] (5 mg/Kg, observed for 1 hour) is “None”.
On the same counts, the results for `CC(C)=CC1OC2C(OC3=CC[C@]4(C)[C@@]5(C)c6[nH]c7ccccc7c6C[C@@H]5CC[C@@]4(O)C34OC24)C(C)(C)O1` (some centres unmarked) [Compound II] are 0.99-1 and “None”.
On the same counts, the results for `CC1(C)OC1Cc1cccc2[nH]c3c(c12)C[C@@H]1CC[C@@]2(O)C45OC4C4OC(C6OC6(C)C)OC(C)(C)C4OC5=CC[C@]2(C)[C@@]31C` (some centres unmarked) [Compound I] are 0.9 and “None”.
Take Aflatrem [reference compound]: in data set [2] (1 and 5 mg/Kg), the “time to tremors after injection” value was at most 15 min and the Tremors result was “Tremors”.
